Assay results as given in US7868135B2, “Compositions of lipopeptide antibiotic derivatives and methods of use thereof” (priority 2003, dated 2011).

What was measured:
[1] = Acute toxicity, maximum tolerated dose (MTD); conditions: Swiss CD1, mouse, in vivo, iv
Protocol: Another measure of toxicity is the maximum tolerated dose (MTD), which is determined as a dose level that is not accompanied by mortality or life-threatening toxicity. The dose ratio between toxic and therapeutic effect is the therapeutic index. […] The data obtained from these cell culture assays and animal studies can be used in formulating a dosage range that is not toxic for use in human subjects. […] The dosage may vary within this range depending upon the dosage form employed and the route of administration utilized. The exact formulation, route of administration and dosage can be chosen by the individual physician in view of the patient's condition or need thereof (see, e.g., Fingl et al., 1975, In: The Pharmacological Basis of Therapeutics, Chapter 1).
For example, to examine acute toxicity, lipopeptide antibiotics of the invention can be tested in an animal model, such as Swiss CD1 mice, to determine the MTD. In certain embodiments, the animals used to test toxicity of a particular compound can be approximately 5-6 weeks old at the start of the experiment and weigh 22-26 g. The lipopeptides may be administered intravenously (i.v.) into, for example, the caudal tail vein at dose levels that range from about 50 to about 500 mg/kg, or from about 75 to about 250 mg/kg, or from about 100 to about 200 mg/kg, or at a dose range at or below 100 mg/kg. The animals are generally observed immediately after administration, 1-2 hours post administration, 5-8 hours post administration, and once daily thereafter. Observations include both the activity level of the mouse as well as any physical side effects from the administered dose. The animal weight is recorded on day 0 (immediately before dosing) and on day 7.

in vivo = conditions: male, Sprague Dawley, rat, plasma, iv, 10 mg/kg
Protocol: Yet other exemplary in vivo models can be used to characterize the pharmacokinetics and pharmacodynamic parameters of antimicrobial compounds of this disclosure. Some parameters that can be measured include an in vivo half-life of a compound, elimination rate and clearance, volume of distribution, and bioavailability. For example, briefly, compounds can be administered as a single i.v. or oral (p.o.) dose in mice or rats. At various time points (ranging from 1 minute to 72 hours), blood from treated animals is collected and the concentration of lipopeptide derivative in the ex vivo plasma can be quantified by, for example, liquid chromatography with mass spectrometric detection (LC/MS). After quantification, pharmacokinetics parameters can be calculated using methods known in the art, such as a one compartment model with mono-exponential decay and linear regression analysis (see, e.g., Fantin et al., Antimicrob. Agents Chemotherap. 35: 1413. 1991).
A pharmacokinetic parameter that can be measured, and which aids in determining efficacy, after a single i.v. administration of an antimicrobial lipopeptide derivative of the instant disclosure is the systemic half-life of the compound. Briefly, test compounds were dissolved in a 5% mannitol solution (pH was then adjusted) to a concentration of 1 mg/mL (w/v). A single intravenous injection in the lateral caudal vein of Swiss CD1 mice (5 to 6 weeks old, female) or Sprague Dawley rats (male) was used to administer the lipopeptide derivative at a final dose of 10 mg/kg. At various time points (ranging from about 4 minutes to about 24 hours for mice, and 48 or 72 hours for rats) mice were sacrificed and blood was harvested. The concentration of lipopeptide derivative in ex vivo plasma was quantified using liquid chromatography (LC) with mass spectrometric detection (MS).

Staphylococcus aureus = type: cell-based; conditions: for Post Antibiotic Effect (hours) 0.5 × MIC: exposure one hour at 0.5 × MIC, S. aureus log phase; for Post Antibiotic Effect (hours) 1 × MIC: exposure one hour at 1 × MIC; for Post Antibiotic Effect (hours) 2 × MIC: exposure one hour at 2 × MIC; for Post Antibiotic Effect (hours) 4 × MIC: exposure one hour at 4 × MIC
Protocol: An exemplary pharmacokinetic parameter to aid in characterizing the properties of lipopeptide derivative compounds of the disclosure is post-antibiotic effect (PAE) of a lipopeptide derivative. For example, a bacterial culture with an initial count of 10^6 to 10^7 colony forming units per ml (CFU/ml) is treated with a certain concentration of lipopetide derivative for a certain time and a parallel (control) culture is left untreated. After treatment, the lipopetide derivative is removed from the culture (e.g., by dilution 1:1000 in fresh, lipopetide derivative-free medium), and the untreated culture is manipulated in the same way. Then the cultures are further incubated and monitored for bacterial growth over time. […] By way of background and not wishing to be bound by theory, a lipopeptide derivative having a measurable PAE activity will likely provide additional time for the host immune system to remove bacteria that might have survived antibiotic treatment and reproduced after the antibiotic is degraded, removed or filtered from the circulatory system. A longer PAE can influence the clinical outcome of antimicrobial therapy (i.e., a lower dose of a lipopetide derivative may be used to treat an infection or the frequency of a dosing regimen can be reduced).
After removal of the lipopeptide compounds, bacterial titre was determined each hour to monitor bacterial re-growth. The PAE duration is defined as the difference in time required for antimicrobial exposed bacterial cells versus unexposed bacterial cells to achieve an increase of 1 log10 unit in CFU/mL.

[2] = test system: E. faecalis EFS0040 (clinical isolate); test: Intraperitoneal murine model of protection against infection (ED50, Table 21); type: in vivo, Enterococcus faecalis; conditions: Swiss CD1 mice infected i.p., compound i.v.
Source text: A variety of in vivo models may be used to assess the antimicrobial properties of lipopeptide derivative compounds of this disclosure. For example, antimicrobial compounds of the instant disclosure may be tested for efficacy by measuring a compound's ability to protect a mouse against a microbial infection, such as an infection or disease caused by or related to Gram-positive bacteria, including Staphylococcus aureus, Streptococcus pneumoniae, and Enterococcus faecalis. […] A certain period after infection, mice are then individually treated, for example intravenously (i.v.), with a lipopeptide derivative of this disclosure.
Antimicrobial lipopeptide derivatives of the instant invention were tested for antimicrobial activity against Gram-positive bacteria in an intraperitoneal (i.p.) murine model (i.e., bacteria were injected i.p. and lipopeptide compounds were administered intravenously (i.v.)). Mice were infected with Staphylococcus aureus, Streptococcus pneumoniae, or Enterococcus faecalis, which were prepared as follows: S. aureus Smith (SAU0017, ATCC 19636) were grown in culture overnight on trypticase soy broth, harvested and then resuspended in fresh media containing 5% mucin (Sigma Chemical Co.); S. pneumoniae (SPN 0032, ATCC 10813) were grown overnight on blood agar plates and re-suspended in 0.9% sterile saline; and E. faecalis EFS0040 (clinical isolate) were grown overnight in culture on blood heart infusion broth, washed and resuspended in 0.9% saline and mixed with equal volume of sterile fecal rat extract. Swiss CD1 mice were each infected i.p. with bacteria at the following doses: S. aureus at 10^6 CFU/mouse; S. pneumoniae at 10^2 CFU/mouse; or E. faecalis at 10^7.5 CFU/mouse. […] The ED50 for each compound was calculated using the method of Reed and Meunch (Am. J. Hyg. 27: 493, 1938).

SMILES	MTD at 7 days [1] [mg/kg]	half-life (in vivo) [h]	MIC used for the PAE experiment (Staphylococcus aureus) [µg/mL]	Post Antibiotic Effect (hours) 0.5 × MIC (Staphylococcus aureus) [h]	Post Antibiotic Effect (hours) 1 × MIC (Staphylococcus aureus) [h]	Post Antibiotic Effect (hours) 2 × MIC (Staphylococcus aureus) [h]	Post Antibiotic Effect (hours) 4 × MIC (Staphylococcus aureus) [h]	ED50 in Mice, E. faecalis (EFS0040) [2] [mg/kg]
CCCCCCCCCCCCCCC(=O)NC(CC(=O)O)C(=O)NC1C(=O)N2CCCCC2C(=O)NC(C(C)C(=O)O)C(=O)NC(CC(=O)O)C(=O)NCC(=O)NC(CC(=O)O)C(=O)NCC(=O)NC(C(C)NC(=O)CNC(=O)[C@@H](N)CCCCN)C(=O)NC(C(C)C)C(=O)N2CCCC2C(=O)NC1C (stereo partly shown) [Compound 4, C15-Amphomycin-9-Gly-Lys]	200 to 400	1.09	1	0.6	0.7	1.9	3.0	
CCCCCCCCCCCCCCC(=O)NC(CC(=O)O)C(=O)NC1C(=O)N2CCCCC2C(=O)NC(C(C)C(=O)O)C(=O)NC(CC(=O)O)C(=O)NCC(=O)NC(CC(=O)O)C(=O)NCC(=O)NC(C(C)NC(=O)CN(C)C(=O)[C@@H](N)CCCCN)C(=O)NC(C(C)C)C(=O)N2CCCC2C(=O)NC1C (stereo partly shown) [Compound 199, C15-Amphomycin-9-Sar-Lys]	200 to 400							3
CCCCCCCCCCCCCCC(=O)NC(CC(=O)O)C(=O)NC1C(=O)N2CCCCC2C(=O)NC(C(C)C(=O)O)C(=O)NC(CC(=O)O)C(=O)NCC(=O)NC(CC(=O)O)C(=O)NCC(=O)NC(C(C)NC(=O)CCN)C(=O)NC(C(C)C)C(=O)N2CCCC2C(=O)NC1C (stereo not drawn) [Compound 147, C15-Amphomycin-9-(β-Ala)]		4.58	1	1.6	1.6	1.9	1.0	0.8
